Active and inactive are the calls of the source. No cut-off for these calls is given here.
Columns and labels:
[1] = Antioxidant activity assessed as trolox equivalents of AAPH-induced radical scavenging activity by ORAC-FL assay; type: functional
DNA = assay: Antioxidant activity assessed as protection against ferrous ions and dioxygen-induced free radical-mediated DNA strand break in pEMBL8 supercoiled DNA preincubated with DNA followed by (NH4)2Fe(SO4)2.6H2O addition measured after 6 mins by ethidium bromide staining based agarose gel electrophoresis method; type: functional
NCTC-2544 [2] = assay: Antioxidant activity in human NCTC-2544 cells assessed as reduction in H2O2-induced ROS level at 30 uM preincubated up to 3 hrs followed by H2O2 addition measured for 30 mins by DCFH-DA staining based fluorescence assay; type: functional, cell-based
NCTC-2544 [3] = assay: Antioxidant activity in human NCTC-2544 cells assessed as reduction in H2O2-induced ROS level at 30 uM preincubated with cells followed by H2O2 addition measured after 24 hrs by DCFH-DA staining based fluorescence assay; type: functional
NCTC-2544 [4] = assay: Cytotoxicity against human NCTC-2544 cells assessed as reduction in cell viability at 30 uM up to 72 hrs by WST8 assay; type: cell-based; conditions: nctc-2544, 72 h
NCTC-2544 [5] = assay: Antioxidant activity in human NCTC-2544 cells assessed as reduction in intracellular oxidation level at 30 uM after 1 hr by DCFH-DA staining based fluorescence assay; type: functional, cell-based
NCTC-2544 [6] = assay: Antioxidant activity in human NCTC-2544 cells assessed as reduction in intracellular oxidation level at 30 uM after 3 hrs by DCFH-DA staining based fluorescence assay; type: functional, cell-based
NCTC-2544 [7] = assay: Antioxidant activity in human NCTC-2544 cells assessed as reduction in intracellular oxidation level at 30 uM after 24 hrs by DCFH-DA staining based fluorescence assay; type: functional, cell-based
NCTC-2544 [8] = assay: Cytotoxicity against human NCTC-2544 cells assessed as reduction in cell viability at 30 uM at 72 hrs by WST8 assay relative to control; type: cell-based; conditions: nctc-2544, 72 h

| Compound | EC50 (DNA) [µM] | Activity [1] [equiv] | Activity (NCTC-2544 [2]) | Activity (NCTC-2544 [3]) | Activity (NCTC-2544 [4]) | Activity (NCTC-2544 [5]) | Activity (NCTC-2544 [6]) | Activity (NCTC-2544 [7]) | Activity (NCTC-2544 [8]) [%] |
| --- | --- | --- | --- | --- | --- | --- | --- | --- | --- |
| CCOC(=O)C1=C(C)N(NC(=O)OC(C)(C)C)C23c4cc5c(cc4CCN2Cc2c(ccc(OC)c2OC)C13)OCO5 (centres undefined) | 74 | 1560 | Active | 37% | Non-Toxic | Active | Active | Active |  |
| COc1ccc2c(c1OC)CN1CCc3cc4c(cc3C13C2C(P(=O)(OC)OC)=C(C)N3NC(=O)OC(C)(C)C)OCO4 (centres undefined) | 196 | 1130 | Active | inactive |  |  |  |  | 35 |
| COc1ccc2c(c1OC)CN1CCc3cc4c(cc3C1C2)OCO4 (centres undefined) [TETRAHYDROBERBERINE] | 93 | 1580 | Active | inactive |  |  |  | inactive |  |

More lines, main results first:

| EC50 (DNA) [µM] | Compound | Activity [1] [equiv] | Activity (NCTC-2544 [2]) | Activity (NCTC-2544 [3]) | Activity (NCTC-2544 [4]) | Activity (NCTC-2544 [5]) | Activity (NCTC-2544 [6]) | Activity (NCTC-2544 [7]) | Activity (NCTC-2544 [8]) [%] |
| --- | --- | --- | --- | --- | --- | --- | --- | --- | --- |
| 119 | COC(=O)C1=C(C)N(NC(=O)OC(C)(C)C)C23c4cc5c(cc4CCN2Cc2c(ccc(OC)c2OC)C13)OCO5 (centres undefined) | 1470 | Active | inactive | Non-Toxic |  |  |  |  |
| 407 | CCOC(=O)NN1C(C)=C(C(=O)OCC)C2c3ccc(OC)c(OC)c3CN3CCc4cc5c(cc4C231)OCO5 (centres undefined) | 955 | Active | inactive | Non-Toxic | Active |  |  |  |
| 140 | COc1ccc2c(c1OC)CN1CCc3cc4c(cc3C13C2C(C(=O)Nc1ccccc1)=C(C)N3NC(=O)Nc1ccccc1)OCO4 (centres undefined) | 185 | Active | inactive | Non-Toxic |  |  |  |  |
| 683 | COC(=O)NN1C(C)=C(C(=O)OC)C2c3ccc(OC)c(OC)c3CN3CCc4cc5c(cc4C231)OCO5 (centres undefined) | 855 | Active | inactive | Non-Toxic |  |  |  |  |
| 63 | COC(=O)C1=C(C)N(NC(=O)Nc2ccccc2)C23c4cc5c(cc4CCN2Cc2c(ccc(OC)c2OC)C13)OCO5 (centres undefined) | 1160 | Active | inactive | Non-Toxic |  |  |  |  |
